Laboratory results published in patent US10752588B2 (The Broad Institute, Inc., priority 2014, dated 2020).

How the values were obtained:
human D2R/β-arrestin [1] = target: T1, human D2R/β-arrestin (Homo sapiens (Human), UniProt P14416); experiment: β-Arrestin agonist assay (PathHunter); assay type: cell-based; details: CHO-K1 cell line expressing human D2R/β-arrestin
How it was run: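 Readout follows addition of Buffer:Emerald II:Galactor-Star reagent (19:5:1) to agonist-treated plates, measured as luminescence or fluorescence.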

human D2R/β-arrestin [2] = target: T1, human D2R/β-arrestin; experiment: Gi/cAMP agonist assay (Lance Ultra cAMP, Forskolin); assay type: cell-based; details: CHO-K1 cell line expressing human D2R/β-arrestin
How it was run: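 Read-out was Lance Ultra competitive TR-FRET (Eu-cAMP tracer plus ULight-anti-cAMP) following forskolin-induced cAMP production. Before forskolin stimulation, compounds were pin-transferred onto the seeded cells for 10 min at 37 °C.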

human D2R/β-arrestin [3] = target: T1, human D2R/β-arrestin; experiment: cell-based; details: β-arrestin Antagonist, CHO-K1 cell line expressing human D2R/β-arrestin; quinpirole used as agonist
human D2R/β-arrestin [4] = target: T1, human D2R/β-arrestin; experiment: cell-based; details: cAMP Antagonist, CHO-K1 cell line expressing human D2R/β-arrestin; quinpirole used as agonist
[5] = Microsomal stability, mouse

T1 sequence (P14416 whole entry): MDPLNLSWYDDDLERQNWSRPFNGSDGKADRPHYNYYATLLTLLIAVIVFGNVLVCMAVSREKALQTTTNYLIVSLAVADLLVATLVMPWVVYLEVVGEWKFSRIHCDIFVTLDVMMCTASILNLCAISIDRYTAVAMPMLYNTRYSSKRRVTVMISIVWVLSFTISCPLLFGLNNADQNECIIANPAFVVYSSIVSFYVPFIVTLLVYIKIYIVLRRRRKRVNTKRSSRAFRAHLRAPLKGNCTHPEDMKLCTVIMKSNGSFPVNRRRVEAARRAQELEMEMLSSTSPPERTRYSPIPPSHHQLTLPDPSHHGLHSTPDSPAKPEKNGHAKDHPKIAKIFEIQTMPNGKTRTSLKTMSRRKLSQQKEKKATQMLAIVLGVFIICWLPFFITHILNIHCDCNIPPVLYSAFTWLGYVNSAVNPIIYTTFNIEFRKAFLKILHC

SMILES | EC50 (human D2R/β-arrestin [1]) | EC50 (human D2R/β-arrestin [2]) | IC50 (human D2R/β-arrestin [3]) | IC50 (human D2R/β-arrestin [4]) | Microsomal Stability: % remaining after 60 minutes [5]
CN(CC1CCN(CCOc2ccc(C(F)(F)F)cc2)CC1)C(c1ccc(Cl)cc1)c1ccccn1 (centres unmarked) [Compound 137, 1-(4-chlorophenyl)-N-methyl-1-(pyridin-2-yl)-N-((1-(2-(4-(trifluoromethyl)phenoxy)ethyl)piperidin-4-yl)methyl)methanamine] | > 30000 nM | > 30000 nM | 1000 to 10000 nM | 1000 to 10000 nM | m1%
CC(C1CCN(CCOc2ccccc2)CC1)N(C)C(c1ccc(Cl)cc1)c1ccccn1 (single isomer, unassigned) [Compound 97b, N-((4-chlorophenyl)(pyridin-2-yl)methyl)-N-methyl-1-(1-(2-phenoxyethyl)piperidin-4-yl)ethan-1-amine] | > 30000 nM | 100 to 1000 nM | 100 to 1000 nM | 100 to 1000 nM | m3%
O=C(NC(c1ccc(Cl)cc1)c1ccccc1F)C1CCN(CCOc2ccccc2F)CC1 (centres unmarked) [Compound 96, N-((4-chlorophenyl)(2-fluorophenyl)methyl)-1-(2-(2-fluorophenoxy)ethyl) piperidine-4-carboxamide] | > 30000 nM | 100 to 1000 nM | 100 to 1000 nM | 100 to 1000 nM | m26%
O=C(NC(c1ccc(Cl)cc1)c1ccncc1F)C1CCN(CCOc2ccccc2F)CC1 (single isomer, unassigned) [Compound 91b, N-((4-chlorophenyl)(3-fluoropyridin-4-yl)methyl)-1-(2-(2-fluorophenoxy)ethyl)piperidine-4-carboxamide] | > 30000 nM | > 30000 nM | 100 to 1000 nM | 100 to 1000 nM | m1%
CN(C(=O)C1CCN(CCOc2ccccc2)CC1)C(c1ccc(Cl)cc1)c1ccccn1 (centres unmarked) [Compound 51, N((4-chlorophenyl)(pyridin-2-yl)methyl)-N-methyl-1-(2-phenoxyethyl) piperidine-4-carboxamide] | > 30000 nM | 100 to 1000 nM | 1000 to 10000 nM | > 30000 nM | m0%
Clc1ccc(C(c2ccccn2)N2CCC3(CCN(CCOc4ccccc4)CC3)C2)cc1 (single isomer, unassigned) [Compound 105a, 2-((4-chlorophenyl)(pyridin-2-yl)methyl)-8-(2-phenoxyethyl)-2,8-diazaspiro[4.5]decane] | 100 to 1000 nM | < 100 nM | 100 to 1000 nM | > 30000 nM | m1%
Clc1ccc(C(OCC2CCN(CCOc3ccccc3)CC2)c2ccccn2)cc1 (centres unmarked) [Compound 99, 2-((4-chlorophenyl)((1-(2-phenoxyethyl)piperidin-4-yl)methoxy)methyl)pyridine] | > 30000 nM | 100 to 1000 nM | 1000 to 10000 nM | > 30000 nM | m7%
CC(C)N(CC1CCN(CCOc2ccc(F)cc2)CC1)C(c1ccc(Cl)cc1)c1ccccn1 (centres unmarked) [Compound 135, N-((4-chlorophenyl)(pyridin-2-yl)methyl)-N-((1-(2-(4-fluorophenoxy)ethyl)piperidin-4-yl)methyl)propan-2-amine] | > 30000 nM | > 30000 nM | 1000 to 10000 nM | 100 to 1000 nM | m2%
CN(CC1CCN(CCOc2ccccc2)CC1)C(c1ccc(F)cc1)c1ccccn1 (single isomer, unassigned) [Compound 74b, 1-(4-fluorophenyl)-N-methyl-N-((1-(2-phenoxyethyl)piperidin-4-yl)methyl)-1-(pyridin-2-yl)methanamine] | > 30000 nM | 100 to 1000 nM | 100 to 1000 nM | 100 to 1000 nM | 
O=C(NC(c1ccc(Cl)cc1)c1ccccn1)C1CCN(CCOc2ccccc2)CC1 (single isomer, unassigned) [Compound 63b, N-((4-chlorophenyl)(pyridin-2-yl)methyl)-1-(2-phenoxyethyl)piperidine-4-carboxamide] | > 30000 nM | > 30000 nM | 100 to 1000 nM | 100 to 1000 nM | 
O=C(NC(c1ccc(F)cc1)c1ccccn1)C1CCN(CCOc2ccc3ncsc3c2)CC1 (centres unmarked) [Compound 55, 1-(2-(benzo[d]thiazol-6-yloxy)ethyl)-N-((4-fluorophenyl)(pyridin-2-yl)methyl)piperidine-4-carboxamide] | > 30000 nM | > 30000 nM | 1000 to 10000 nM | 1000 to 10000 nM | 
COc1cccc(C(c2ccccn2)N(C)CC2CCN(CCOc3ccccc3)CC2)c1 (single isomer, unassigned) [Compound 76a, 1-(3-methoxyphenyl)-N-methyl-N-((1-(2-phenoxyethyl)piperidin-4-yl)methyl)-1-(pyridin-2-yl)methanamine] | > 30000 nM | 100 to 1000 nM | 1000 to 10000 nM | 100 to 1000 nM | 
O=C(NC(c1ccc(Cl)cc1)c1ccccn1)C1CCN(CCOc2ccccc2)CC1 (single isomer, unassigned) [Compound 63a, N-((4-chlorophenyl)(pyridin-2-yl)methyl)-1-(2-phenoxyethyl)piperidine-4-carboxamide] | > 30000 nM | 100 to 1000 nM | 1000 to 10000 nM | > 30000 nM | 
CN(CC1CCN(CCOc2ccccc2)CC1)C(c1ccc(F)cc1)c1ccccn1 (single isomer, unassigned) [Compound 74a, 1-(4-fluorophenyl)-N-methyl-N-((1-(2-phenoxyethyl)piperidin-4-yl)methyl)-1-(pyridin-2-yl)methanamine] | > 30000 nM | 1000 to 10000 nM | 1000 to 10000 nM | > 30000 nM | 
CC1(C(=O)NC(c2ccc(F)cc2)c2ccccn2)CCN(CCOc2ccccc2F)CC1 (centres unmarked) [Compound 71, 1-(2-(2-fluorophenoxy)ethyl)-N-((4-fluorophenyl)(pyridin-2-yl)methyl)-4-methylpiperidine-4-carboxamide] | < 100 nM | < 100 nM | 100 to 1000 nM | > 30000 nM | 
CC1(C(=O)NC(c2ccc(F)cc2)c2ccccn2)CCN(CCOc2ccccc2C(F)(F)F)CC1 (centres unmarked) [Compound 70, N-((4-fluorophenyl)(pyridin-2-yl)methyl)-4-methyl-1-(2-(2-(trifluoromethyl)phenoxy)ethyl) piperidine-4-carboxamide] | > 30000 nM | 100 to 1000 nM | 100 to 1000 nM | 100 to 1000 nM | 
O=C(NC(c1ccc(Cl)cc1)c1ccc(F)cn1)C1CCN(CCOc2ccccc2F)CC1 (single isomer, unassigned) [Compound 92b, N-((4-chlorophenyl)(5-fluoropyridin-2-yl)methyl)-1-(2-(2-fluorophenoxy)ethyl)piperidine-4-carboxamide] | > 30000 nM | 10000 to 30000 nM | 1000 to 10000 nM | 1000 to 10000 nM | 
Fc1ccc(C(NCC2CCN(CCOc3ccccc3)CC2)c2ccccn2)cc1 (single isomer, unassigned) [Compound 78a, 1-(4-fluorophenyl)-N-((1-(2-phenoxyethyl)piperidin-4-yl)methyl)-1-(pyridin-2-yl)methanamine] | > 30000 nM | 100 to 1000 nM | 1000 to 10000 nM | 1000 to 10000 nM | 
COc1cccc(C(c2ccccn2)N(C)CC2CCN(CCOc3ccccc3F)CC2)c1 (centres unmarked) [Compound 77, N-((1-(2-(2-fluorophenoxy)ethyl)piperidin-4-yl)methyl)-1-(3-methoxyphenyl)-N-methyl-1-(pyridin-2-yl)methanamine] | > 30000 nM | < 100 nM | 100 to 1000 nM | 1000 to 10000 nM | 
CC(C)N(CC1CCN(CCOc2ccccc2F)CC1)C(c1ccc(Cl)cc1)c1ccccn1 (centres unmarked) [Compound 133, N-((4-chlorophenyl)(pyridin-2-yl)methyl)-N-((1-(2-(2-fluorophenoxy)ethyl)piperidin-4-yl)methyl)propan-2-amine] | > 30000 nM | < 100 nM | < 100 nM | < 100 nM | 
COc1cccc(C(NC(=O)C2CCN(CCOc3ccccc3F)CC2)c2ccccn2)c1 (centres unmarked) [Compound 22, 1-(2-(2-fluorophenoxy)ethyl)-N-((3-methoxyphenyl)(pyridin-2-yl)methyl) piperidine-4-carboxamide] | > 30000 nM | > 30000 nM | 100 to 1000 nM | 100 to 1000 nM | 
Fc1ccccc1OCCN1CCC(CNC(c2ccc(Cl)cc2)c2ccccc2F)CC1 (centres unmarked) [Compound 87, 1-(4-chlorophenyl)-N-((1-(2-(2-fluorophenoxy)ethyl)piperidin-4-yl)methyl)-1-(2-fluorophenyl)methanamine] | > 30000 nM | > 30000 nM | 100 to 1000 nM | 100 to 1000 nM | 
O=C(NC(c1ccc(F)cc1)c1ccccc1F)C1CCN(CCOc2ccccc2)CC1 (centres unmarked) [Compound 49, N-((2-fluorophenyl)(4-fluorophenyl)methyl)-1-(2-phenoxyethyl)piperidine-4-carboxamide] | > 30000 nM | 1000 to 10000 nM | 100 to 1000 nM | 1000 to 10000 nM | 
COc1cccc(C(NC(=O)C2CCN(CCOc3ccccc3Cl)CC2)c2ccccn2)c1 (centres unmarked) [Compound 21, 1-(2-(2-chlorophenoxy)ethyl)-N-((3-methoxyphenyl)(pyridin-2-yl)methyl) piperidine-4-carboxamide] | > 30000 nM | > 30000 nM | 100 to 1000 nM | 100 to 1000 nM | 
